Measurements as given in patent publication US8835502B2, “Treatment of friedreich's ataxia using histone deacetylase inhibitors” (The Scripps Research Institute, priority 2005, dated 2014).
“And” between values parts separate entries of the source, which are not always exact repeats. Equal entries are not always repeated.

Key:
[1] = test system: frataxin mRNA in affected GM15850 cells; assay: Frataxin mRNA by real-time quantitative RT-PCR in FRDA lymphoid cell line GM15850; assay type: cell-based, human
Description: (§1) Real-time quantitative RT-PCR analysis was performed essentially as described in Chuma et al., Hepatology 37:198-207 (2003) using the following primers for the frataxin gene: 5′-[…]-3′ and 5′-[…]-3′. RNA was standardized by quantification of GAPDH mRNA as described in Pattyn et al., Nucl. Acids Res. 31:122-3 (2003), and all values are expressed relative to GAPDH. Quantitative real-time RT-PCR was performed using iScript One-Step RT-PCR kit with SYBR green (BioRad). Statistical analysis was performed on three independent quantitative RT-PCR experiments for each RNA sample, and error bars shown in the figures represent standard errors of the mean.

[2] = target: total histone deacetylation in a HeLa nuclear extract; assay: Histone deacetylase assay (BioMol AK500 kit), HeLa nuclear extract; assay type: biochemical; conditions: HeLa nuclear extract; read-out: IC50, total histone deacetylation inhibition (converted)
Description: Each of the histone deacetylase inhibitors was assayed with the BioMol AK500 kit to determine IC50 values. Samples were processed as described by BioMol and read with a 96-well fluorescence plate reader. A semi-logarithmic plot of the data was analyzed with Kaleidagraph software to obtain the IC50 value.

[3] = test system: frataxin protein in the FRDA lymphoid cell line; assay: Frataxin protein by western blot in FRDA lymphoid cell line; assay type: cell-based, human; conditions: 4 days
[4] = test system: frataxin mRNA in primary lymphocytes; assay: Frataxin mRNA by qRT-PCR in primary lymphocytes from FRDA patients, carriers and normal relatives; assay type: cell-based, human; conditions: 48 hours
Description: as §1
The Friedreich's Ataxia Research Alliance (Arlington, Va.) recruited a series of families with affected individuals and siblings or parents for anonymous blood donation (with a Human Subjects Protocol approved by the Scripps Clinic Human Subjects Committee and by NINDS, with appropriate informed consent). Blood was collected in heparinized Vacutainer tubes (#364680, BD Biosciences) and lymphocytes were isolated by density centrifugation using Ficoll-Paque PLUS (Amersham Biosciences), according to the manufacturer. Lymphocytes were maintained in the same culture medium and conditions as the established cell lines, and HDAC inhibitor treatment was as described above. Cells were treated with HDAC inhibitors after 16 h, and RNA isolated after subsequent 48 h incubation. Under these culture conditions, no increases in cell number were observed.

lymphoid cell lines = assay: Viability, cytotoxicity (trypan blue exclusion) and growth of lymphoid cell lines; assay type: cell-based, human; conditions: 1 to 5 μM
[5] = FRDA lymphocytes of affected individual S, 5 μM

In the case of `Nc1ccccc1NC(=O)CCCCCCC(=O)Nc1ccccc1` [Compound 4c, N^1-(2-Aminophenyl)-N^8-phenyloctanediamide], the “Effect on frataxin mRNA level (frataxin transcription), FIG. 2B” value ([1]; FRDA cell line, each inhibitor at the IC50 value reported by the supplier, normalized to GAPDH) is reported as ~2 fold, the fold induction at 5 µM ([1]; Homo sapiens, GM15850, 96 h, affected GM15850 cells, 5 μM, 96 h, normalized to GAPDH mRNA, relative to untreated control cells, read-out: Fold-change of frataxin mRNA) is reported as 1.4 ± 0.06 and the IC50 [2] is reported as 87 µM. The “Fold change in frataxin protein compared to untreated control cells, normalized to actin” value ([3]; 2.5 μM) was 1.6 fold, the “Fold change in frataxin protein compared to untreated control cells, normalized to actin” value ([3]; 5 μM) was ~3 fold and 3.4 fold and the “Fold increase of relative frataxin mRNA level” value [4, 5] was 1.8 fold. The “Percent increase of relative frataxin mRNA level” value [4, 5] was 80%, the “Increase of frataxin mRNA” value ([4]; lymphocytes from the unaffected sibling A) was “no positive effect” and the “Cytotoxicity to the lymphoid cell lines (trypan blue exclusion)” value (lymphoid cell lines) was “not cytotoxic”. For the same compound, the “Effect on cell growth rates” value (lymphoid cell lines; lymphoid cell lines) was “does not markedly affect cell growth rates”.
